Measured values from PMC4393105, “tRNA^Glu Increases the Affinity of Glutamyl-tRNA Synthetase for Its Inhibitor Glutamyl-Sulfamoyl-Adenosine, an Analogue of the Aminoacylation Reaction Intermediate Glutamyl-AMP: Mechanistic and Evolutionary Implications” (PLoS ONE, 2015).
Where “and” joins values, the source holds several entries; their conditions need not be identical. Equal entries are not always repeated.

Molecular target: T1, E. coli GluRS + E. coli tRNA^Glu (Escherichia coli, UniProt P04805)
T1 construct: His tag (histidine tag) (C); made in house
T1 sequence (P04805 whole entry): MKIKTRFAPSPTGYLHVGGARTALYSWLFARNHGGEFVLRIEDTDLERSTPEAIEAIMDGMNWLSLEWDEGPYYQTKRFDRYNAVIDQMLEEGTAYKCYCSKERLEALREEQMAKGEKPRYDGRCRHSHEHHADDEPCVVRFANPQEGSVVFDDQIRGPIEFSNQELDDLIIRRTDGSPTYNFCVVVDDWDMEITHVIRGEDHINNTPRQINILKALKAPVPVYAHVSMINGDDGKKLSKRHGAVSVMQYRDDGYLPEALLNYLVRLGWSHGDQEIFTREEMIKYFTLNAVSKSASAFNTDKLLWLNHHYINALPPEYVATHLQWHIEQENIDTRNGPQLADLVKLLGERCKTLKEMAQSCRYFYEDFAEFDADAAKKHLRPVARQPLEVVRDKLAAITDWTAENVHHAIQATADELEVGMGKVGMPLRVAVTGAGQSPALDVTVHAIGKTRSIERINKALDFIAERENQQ
Assay: Isothermal titration microcalorimetry of Glu-AMS binding to GluRS in the presence of tRNA^Glu
Details: for Kd: Kd = 1/Kb
Method: Overproduction and purification of E. coli GluRS were performed as previously described with the following modifications. A C-terminal histidine-tagged GluRS was used instead of the N-terminal tagged one. The overproduction was induced overnight at 30°C with 1 mM IPTG.
Overproduction and purification of E. coli tRNA^Glu-enriched total tRNA was done as described. […] Saccharomyces cerevisiae tRNA^Phe, used as a negative control, was purchased from Sigma-Aldrich (cat No: R4018).
The GluRS solution with or without tRNA was dialyzed overnight in a D-tube dialyzer (Novagen) against 2 L of dialysis buffer (50 mM HEPES-KOH, pH 7.2, 10 mM MgCl2) at 4°C with light stirring. The next morning, the dialyzed solution was recovered and the volume adjusted by adding dialysis buffer to obtain the desired concentration (typically 9 μM GluRS and 11 μM tRNA^Glu). This solution was kept on ice until use. Glu-AMS was diluted in the dialysis buffer to obtain a final concentration of 90 μM. All buffers and solutions were degased with stirring under vacuum. The microcalorimetry experiments were carried out in a VP-ITC 100 microcalorimeter (MicroCal, GE Healthcare) using deionized water as an internal reference for all assays. VPViewer ITC 2000 and Origin v 5.0 softwares (Microcal Software, Inc) were used for data collection and analysis, respectively.
To measure the thermodynamic parameters of the interaction between Glu-AMS and GluRS, in the presence and in the absence of tRNA, a solution containing 9 μM GluRS with or without a stoichiometric excess of tRNA^Glu or S. cerevisiae tRNA^Phe (Table 1) was placed in the sample cell of the microcalorimeter. The following conditions were used for all tests: reference power was set at 12 μcal/s and stirring at 300 rpm, the “high” feedback mode and “No check Temp”, “Fast Equil” and “Auto” ITC equilibration options were selected. […] After a first injection of 1 μL over 2 s, a series of 39 injections (7.4 μL over 14.8 s) with 240 s between injections was performed. Injections of Glu-AMS in GluRS alone, GluRS•tRNA^Glu or GluRS•tRNA^Phe, were performed at 30°C (303 K), and done in duplicate. Injections of Glu-AMS in GluRS were also performed at 20°C and 37°C (293 and 310 K): 14 injections (20 μL over 40 s) followed the first injection of 1 μL. Each temperature was tested in duplicate, and in triplicate at 37°C.
The following nomenclature was used to describe the interaction at equilibrium between Glu-AMS and either GluRS or a GluRS•tRNA complex: GluRS•Glu-AMS↔GluRS+[…] Kd=[GluRS]×[Glu-AMS]/[GluRS•Glu-AMS] 1/Kd=Kb (binding constant, sometimes referred to as Ka).

[1] = single ITC run, tRNA^Glu 5.3 µM, 303 K, [ligand] 45 µM, [GluRS] 2.636 µM
[2] = single ITC run, tRNA^Glu 10.6 µM, 303 K, [ligand] 90 µM, [GluRS] 5.792 µM
[3] = with E. coli tRNA^Glu, 30°C, weighted mean of ITC runs

SMILES: Nc1ncnc2c1ncn2[C@@H]1O[C@H](COS(=O)(=O)NC(=O)[C@@H](N)CCC(=O)O)[C@@H](O)[C@H]1O [Glu-AMS, 5’-O-[N-(L-glutamyl)sulfamoyl]adenosine]
- Kd (K d aa-AMP aaRS, in the presence of tRNA^Glu): 7 nM
- Kd (Kd (dissociation constant), single ITC run, tRNA^Glu 5.3 µM, 303 K, [ligand] 45 µM, [GluRS] 2.636 µM): 5.49 ± 1.35 nM
- Kd (Kd (dissociation constant), single ITC run, tRNA^Glu 10.6 µM, 303 K, [ligand] 90 µM, [GluRS] 5.792 µM): 8.96 ± 2.26 nM
- -TΔSb [1]: -2908 ± 33
- n (stoichiometry coefficient) [1]: 1.004 ± 0.006
- ΔGb (reaction energy) [1]: -11.452 kcal/mol
- ΔHb (reaction enthalpy) [1]: -8.537 ± 0.097 kcal/mol
- ΔSb (reaction entropy) [1]: 9.596 ± 0.11 cal/mol·K
- -TΔSb [2]: -3548 ± 38
- n (stoichiometry coefficient) [2]: 1.000 ± 0.006
- ΔGb (reaction energy) [2]: -11.156 kcal/mol
- ΔHb (reaction enthalpy) [2]: -7.61 ± 0.081 kcal/mol
- ΔSb (reaction entropy) [2]: 11.71 ± 0.12 cal/mol·K
- -TΔSb [3]: -3.186 ± 0.025 kcal/mol
- n (stoichiometry coefficient) [3]: 1.0018 ± 0.0041
- ΔHb (reaction enthalpy) [3]: -7.99 ± 0.062 kcal/mol
- ΔSb (reaction entropy) [3]: 10.5 cal/mol·K and 10.52 ± 0.08 cal/mol·K
- fold decrease of the dissociation constant Kd in the presence of tRNA^Glu (with versus without tRNA^Glu): 50 fold
- free energy of binding difference observed in the presence of tRNA^Glu (with versus without tRNA^Glu, 30°C): about 2.2 kcal/mol
